Reference: patent publication US11592451B2, “Method for the preselection of drugs for protein misfolding diseases” (betaSENSE GmbH, priority 2016, dated 2023)
Entries after “also recorded” stand apart in the source; their conditions may differ.

Key:
[1] = test system: memory function; conditions: rat models; cited from earlier work
[2] = target: T1, Aβ1-42 (Homo sapiens, UniProt P05067); test: ATR-FTIR sensor drug-screening assay: synthetic Aβ1-42 captured on antibody A8978 terminated germanium, auto-induced fibrilization monitored by amide I band; type: biochemical
T1 construct: Amyloid-beta-Protein fragment 1-42; purchased Sigma-Aldrich A9810; host or cells: synthetic peptide
T1 sequence (P05067 672-713 limits assumed): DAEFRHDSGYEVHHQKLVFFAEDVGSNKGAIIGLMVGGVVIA
Excerpt: The present invention is based on the detection of secondary structural changes induced by the potential drug by means of vibrational spectroscopy. […] Instead of a 70V (Bruker) we employed an 80V FTIR spectrometer (Bruker) to improve the signal to noise ratio of the measurements. As internal reflection element germanium crystal were chemically modified with NHS-silanes, which function as anchors for the covalent attachment of the desired antibodies. After blocking the surface with casein the surface is ready for capturing of the target protein (Tau or Aβ1-42). […] The target protein was analyzed in the presence of the potential drug and the effect was monitored by the change in the amide I band. […] Another example is the study of the second important biomarker Aβ1-42. Since the developed sensor is universal, the antibody A8978 against the epitope 13-28 of Aβ1-42 could be applied for the analysis of the potential drug berberine. To monitor a potential effect of berberine the surface was loaded with synthetic Aβ1-42.
The human Aβ-peptide was purchased from Sigma-Aldrich (A9810, Amyloid-beta-Protein fragment 1-42).
IR-measurements were performed on a Vertex 80V spectrometer (Bruker Optics GmbH, Ettlingen, Germany) with liquid nitrogen cooled mercury-cadmium-telluride (MCT) detector. Double-sided interferograms were recorded in forward-backward interferometer movement at a 80 kHz data rate with a spectral resolution of 2 cm^−1, Blackman-Harris-3-Term-apodisation, Mertz-phase correction and 4 times zero filling. Reference spectra were recorded as an average of 1000, sample spectra of 200 interferograms. Recording reference single channel spectra of the blank sensor, sensor with 2-propanol, the silanized surface, the buffers, antibody or casein coated surface in equilibrium states enabled high sensitivity difference spectroscopy based on Lambert-Beer law (E=−log(I/I0). The absorbance of the state change is the negative decadic logarithm of the intensity relation before and after the change.
The antibody A8979 (Sigma-aldrich) was employed for capturing the Aβ-peptide (Nabers et al., Anal. Chem. 88(5):2755-62 doi:10.1021/acs.analchem.5b04286 (2016)). The Aβ-peptide (Aβ1-42, synthetic, Sigma-aldrich, Taufkrichen, Germany) was monomerized by incubation with hexafluoro-2-propanol as described elsewhere (Nabers et al., J. Biophotonics 9(3):224-34 doi:10.1002/jbio.201400145 (2016)).

[3] = test system: Tau protein; test: ATR-FTIR sensor drug-screening assay: Tau protein captured from human CSF on antibody Tau-5 terminated germanium, amide I band monitored; type: biochemical; conditions: Tau extracted from CSF; methylene blue 50 μM, berberine 100 μM
Excerpt: The present invention is based on the detection of secondary structural changes induced by the potential drug by means of vibrational spectroscopy. […] Instead of a 70V (Bruker) we employed an 80V FTIR spectrometer (Bruker) to improve the signal to noise ratio of the measurements. As internal reflection element germanium crystal were chemically modified with NHS-silanes, which function as anchors for the covalent attachment of the desired antibodies. After blocking the surface with casein the surface is ready for capturing of the target protein (Tau or Aβ1-42). The Tau protein was directly extracted out of human CSF. […] The target protein was analyzed in the presence of the potential drug and the effect was monitored by the change in the amide I band. […]
IR-measurements were performed on a Vertex 80V spectrometer (Bruker Optics GmbH, Ettlingen, Germany) with liquid nitrogen cooled mercury-cadmium-telluride (MCT) detector. Double-sided interferograms were recorded in forward-backward interferometer movement at a 80 kHz data rate with a spectral resolution of 2 cm^−1, Blackman-Harris-3-Term-apodisation, Mertz-phase correction and 4 times zero filling. Reference spectra were recorded as an average of 1000, sample spectra of 200 interferograms. […]

Q: Which “effect on memory function” value [1] does the source give for `COc1ccc2cc3[n+](cc2c1OC)CCc1cc2c(cc1-3)OCO2` [berberine, berberine chloride] here?
A: Its value is “positive effect on the memory function”.

Q: And the “shoulder of amide I band (β-sheet enriched isoforms) of Aβ1-42 in presence of drug” value ([2]; 100 μM berberine)?
A: The value was 1634 cm⁻¹.

Q: And the “shift of the amide I maximum of Aβ1-42 versus no drug” value ([2]; 100 μM berberine, 18 h)?
A: The value was 25 cm⁻¹.

Q: What about the “amide I maximum of Aβ1-42 in presence of drug” value ([2]; 100 μM berberine, 18 h total, without drug 1634 cm^−1) of the same molecule?
A: The value was 1659 cm⁻¹.

Q: And the “effect on secondary structure distribution / fibrilization of Aβ1-42” value ([2]; synthetic Aβ1-42, drug 100 μM, same conditions for both drugs)?
A: The value was “shifts the distribution mainly to α-helix; also recorded: directly decelerates the aggregation process of Aβ1-42; also recorded: decelerates the auto-induced fibrilization of Aβ1-42”.

Q: What about the “effect on secondary structure distribution of Tau protein” value [3] of the same molecule?
A: Its value is “did not change the secondary structure distribution; also recorded: no significant effect on the Tau protein”.
